Results published in ChEMBL document CHEMBL5550206, “Identification of 6-Fluorine-Substituted Coumarin Analogues as POLRMT Inhibitors with High Potency and Safety for Treatment of Pancreatic Cancer” (J Med Chem, 2024).
Activity calls are given as the source filed them. The rule behind the calls is not given here.

How the values were obtained:
[1] = system: MIA PaCa-2; assay: Effect on ATP5A protein complexes in human MIA PaCa-2 cells reduction in NDUFB8 protein level at 0.01 to 10 uM by Western blot analysis; assay type: functional, cell-based; details: dose 0.01-10 µM
[2] = system: MIA PaCa-2; assay: Induction of cell arrest in human MIA PaCa-2 cells assessed as accumulation of cells at G2 phase at 25 nM measured after 96 hrs by PI staining based flow cytometry (reference value: 11.2%); assay type: functional
[3] = system: MIA PaCa-2; assay: Down-regulation of COX1 gene expression in human MIA PaCa-2 cells at 0.1 to 1 uM measured after 12 hrs by RT-qPCR analysis; assay type: functional, cell-based; details: dose 0.1-1 µM
[4] = system: MIA PaCa-2; assay: Inhibition of RNA pol I in human MIA PaCa-2 cells assessed as effect on 18S RNA level at 0.1 to 1 uM measured after 12 hrs by RT-qPCR analysis; assay type: cell-based; details: dose 0.1-1 µM
[5] = system: MIA PaCa-2; assay: Induction of cell arrest in human MIA PaCa-2 cells assessed as late apoptotic cells at 25 nM measured after 4 days by Annexin V-FITC and propidium iodide (PI) staining based assay (reference value: 3.23%); assay type: functional; details: time 4 day
[6] = system: MIA PaCa-2; assay: Induction of cell arrest in human MIA PaCa-2 cells assessed as early apoptotic cells at 100 nM measured after 4 days by Annexin V-FITC and propidium iodide (PI) staining based assay (reference value: 1.07%); assay type: functional; details: time 4 day
[7] = system: MIA PaCa-2; assay: Reduction in number of mitochondria in human MIA PaCa-2 cells measured after 96 hrs by Mito-Tracker Green and DAPI staining based assay; assay type: functional, cell-based; details: dose 10-1000 nM
[8] = system: MIA PaCa-2; assay: Induction of cell arrest in human MIA PaCa-2 cells assessed as necrotic cells at 50 nM measured after 4 days by Annexin V-FITC and propidium iodide (PI) staining based assay (reference value: 0.82%); assay type: functional; details: time 4 day
[9] = system: MIA PaCa-2; assay: Effect on mitochondrial membrane potential loss in human MIA PaCa-2 cells assessed as change in membrane potential at 0.1 to 5 uM incubated for 96 hrs by JC-1 staining based flow cytometry analysis; assay type: functional, cell-based; details: dose 0.1-5 µM
[10] = system: MIA PaCa-2; assay: Induction of cell arrest in human MIA PaCa-2 cells assessed as necrotic cells at 25 nM measured after 4 days by Annexin V-FITC and propidium iodide (PI) staining based assay (reference value: 0.82%); assay type: functional; details: time 4 day
[11] = system: MIA PaCa-2; assay: Induction of cell arrest in human MIA PaCa-2 cells assessed as necrotic cells at 200 nM measured after 4 days by Annexin V-FITC and propidium iodide (PI) staining based assay (reference value: 0.82%); assay type: functional; details: time 4 day
[12] = system: CAPAN-1; assay: Antiproliferative activity against human CAPAN-1 cells assessed as cell viability measured after 168 hrs incubation by SRB assay; assay type: functional, cell-based; details: CAPAN-1, 168 h
[13] = system: MIA PaCa-2; assay: Induction of cell arrest in human MIA PaCa-2 cells assessed as late apoptotic cells at 500 nM measured after 4 days by Annexin V-FITC and propidium iodide (PI) staining based assay (reference value: 3.23%); assay type: functional; details: time 4 day
[14] = system: MIA PaCa-2; assay: Induction of cell arrest in human MIA PaCa-2 cells assessed as early apoptotic cells at 500 nM measured after 4 days by Annexin V-FITC and propidium iodide (PI) staining based assay (reference value: 1.07%); assay type: functional; details: time 4 day
[15] = system: MIA PaCa-2; assay: Inhibition of RNA pol II in human MIA PaCa-2 cells assessed as effect on 25S RNA level at 0.1 to 1 uM measured after 12 hrs by RT-qPCR analysis; assay type: cell-based; details: dose 0.1-1 µM
[16] = system: MIA PaCa-2; assay: Induction of cell arrest in human MIA PaCa-2 cells assessed as viable cells at 25 nM measured after 4 days by Annexin V-FITC and propidium iodide (PI) staining based assay (reference value: 94.9%); assay type: functional; details: MIA PaCa-2, 96 h, time 4 day, read-out: Activity
[17] = system: MIA PaCa-2; assay: Reduction of protein complexes of mitochondrial electron transport chain in human MIA PaCa-2 cells reduction in NDUFB8 protein level by Western blot analysis; assay type: functional, cell-based; details: dose 0.001-5 µM
[18] = Antiproliferative activity against human […] cells assessed as cell viability measured after 168 hrs incubation by SRB assay; assay type: functional, cell-based
[19] = system: MIA PaCa-2; assay: Induction of cell arrest in human MIA PaCa-2 cells assessed as accumulation of cells at G2 phase at 200 nM measured after 96 hrs by PI staining based flow cytometry (reference value: 11.2%); assay type: functional
[20] = system: MIA PaCa-2; assay: Induction of cell arrest in human MIA PaCa-2 cells assessed as necrotic cells at 500 nM measured after 4 days by Annexin V-FITC and propidium iodide (PI) staining based assay (reference value: 0.82%); assay type: functional; details: time 4 day
[21] = system: MIA PaCa-2; assay: Induction of cell arrest in human MIA PaCa-2 cells assessed as early apoptotic cells at 25 nM measured after 4 days by Annexin V-FITC and propidium iodide (PI) staining based assay (reference value: 1.07%); assay type: functional; details: time 4 day
[22] = system: MIA PaCa-2; assay: Induction of cell arrest in human MIA PaCa-2 cells assessed as accumulation of cells at S phase at 500 nM measured after 96 hrs by PI staining based flow cytometry (reference value: 16.8%); assay type: functional
[23] = system: MIA PaCa-2; assay: Reduction in spare oxygen consumption rate (OCR) in human MIA PaCa-2 cells incubated for 168 hrs; assay type: functional, cell-based; details: dose 1-200 nM
[24] = system: MIA PaCa-2; assay: Induction of cell arrest in human MIA PaCa-2 cells assessed as accumulation of cells at S phase at 50 nM measured after 96 hrs by PI staining based flow cytometry (reference value: 16.8%); assay type: functional
[25] = system: MIA PaCa-2; assay: In vivo antitumor activity against human MIA PaCa-2 cells xenografted in BALB/c mouse assessed as reduction in tumor weight at 100 mg/kg, iv once daily for 25 consecutive day after 2 weeks of cells injection relative to control; assay type: functional; details: MIA PaCa-2, 600 h, time 25 day
[26] = system: MIA PaCa-2; assay: Effect on extracellular acidification rate (ECAR) in human MIA PaCa-2 cells at 1 to 200 nM incubated for 168 hrs; assay type: functional, cell-based; details: dose 1-200 nM
[27] = system: MIA PaCa-2; assay: Reduction in maximal oxygen consumption rate (OCR) in human MIA PaCa-2 cells incubated for 168 hrs; assay type: functional, cell-based; details: dose 1-200 nM
[28] = system: MIA PaCa-2; assay: Inhibition of RNA pol III in human MIA PaCa-2 cells assessed as effect on 5S RNA level at 0.1 to 1 uM measured after 12 hrs by RT-qPCR analysis; assay type: cell-based; details: dose 0.1-1 µM
[29] = system: MIA PaCa-2; assay: Down-regulation of ND1 gene expression in human MIA PaCa-2 cells at 0.1 to 1 uM measured after 12 hrs by RT-qPCR analysis; assay type: functional, cell-based; details: dose 0.1-1 µM
[30] = system: MIA PaCa-2; assay: Induction of cell arrest in human MIA PaCa-2 cells assessed as accumulation of cells at S phase at 200 nM measured after 96 hrs by PI staining based flow cytometry (reference value: 16.8%); assay type: functional
[31] = system: MIA PaCa-2; assay: Induction of cell arrest in human MIA PaCa-2 cells assessed as viable cells at 50 nM measured after 4 days by Annexin V-FITC and propidium iodide (PI) staining based assay (reference value: 94.9%); assay type: functional; details: MIA PaCa-2, 96 h, time 4 day, read-out: Activity
[32] = system: MIA PaCa-2; assay: Induction of cell arrest in human MIA PaCa-2 cells assessed as accumulation of cells at G2 phase at 500 nM measured after 96 hrs by PI staining based flow cytometry (reference value: 11.2%); assay type: functional
[33] = system: MIA PaCa-2; assay: Induction of cell arrest in human MIA PaCa-2 cells assessed as necrotic cells at 100 nM measured after 4 days by Annexin V-FITC and propidium iodide (PI) staining based assay (reference value: 0.82%); assay type: functional; details: time 4 day

For `CCN(CC)C(=O)[C@@H](C)Oc1cc2oc(=O)cc(-c3ccccc3C)c2cc1F`, the Activity [1] was “inactive”, the Activity [2] was 12.6% and the Activity [3] was “Active”. The inhibition [4] was “inactive”, the Activity [5] was 3.32% and the Activity [6] was 0.57%. The Activity [7] was “Dose-Dependent Effect”, the Activity [8] was 0.76% and the Activity [9] was “inactive”. For the same molecule, the Activity [10] was 0.82%, the Activity [11] was 0.83% and the IC50 [12] was 0.404 µM. The Activity [13] was 3.69%, the Activity [14] was 0.77% and the inhibition [15] was “inactive”. The viability at 0.025 µM [16] was 94.5%, the Activity [17] was “Dose-Dependent Effect” and the IC50 [18] was 0.004 µM. It also gave an Activity [19] of 13%, an Activity [20] of 1.28% and an Activity [21] of 1.4%. For the same molecule, the Activity [22] was 17.6%, the Activity [23] was “Dose-Dependent Effect” and the Activity [24] was 15.4%. The inhibition in vivo at 100 mg/kg [25] was 64.5%, the Activity [26] was “inactive” and the Activity [27] was “Dose-Dependent Effect”. The inhibition [28] was “inactive”, the Activity [29] was “Active” and the Activity [30] was 17%. The viability at 0.05 µM [31] was 94.1%, the Activity [32] was 11.6% and the Activity [33] was 0.94%.
